Structures are written as SMILES. “And” between values parts separate entries of the source, which are not always exact repeats. Identical values can stand only once.

We go through two molecules from patent US20130158070A1, “CONJUGATES OF POLYUNSATURATED FATTY ACIDS AND AMINE-CONTAINING COMPOUNDS AND USES THEREOF” (priority 2010, published 2013).

For one data set, the target named is T1, COX-2 (Homo sapiens, UniProt P35354).
T1 sequence (P35354 18-604): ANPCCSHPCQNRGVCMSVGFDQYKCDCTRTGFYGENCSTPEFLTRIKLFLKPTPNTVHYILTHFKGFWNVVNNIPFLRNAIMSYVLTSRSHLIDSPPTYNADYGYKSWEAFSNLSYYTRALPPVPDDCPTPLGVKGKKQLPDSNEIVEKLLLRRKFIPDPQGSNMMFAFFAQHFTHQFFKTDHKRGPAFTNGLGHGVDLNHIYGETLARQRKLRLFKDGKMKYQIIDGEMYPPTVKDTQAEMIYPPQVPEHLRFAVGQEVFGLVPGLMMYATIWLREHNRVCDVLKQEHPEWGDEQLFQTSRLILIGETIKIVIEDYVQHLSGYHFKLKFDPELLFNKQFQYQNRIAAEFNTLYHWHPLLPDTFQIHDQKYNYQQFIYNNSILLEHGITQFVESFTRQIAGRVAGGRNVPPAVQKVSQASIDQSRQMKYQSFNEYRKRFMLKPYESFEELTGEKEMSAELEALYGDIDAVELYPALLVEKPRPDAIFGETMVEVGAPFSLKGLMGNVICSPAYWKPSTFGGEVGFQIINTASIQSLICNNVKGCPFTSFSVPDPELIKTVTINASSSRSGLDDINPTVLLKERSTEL
Briefly: COX-2 inhibition, enzyme immunoassay (EIA). The conditions noted are these: ratio of COX-1 IC50 to COX-2 IC50. The format is biochemical. As for the experimental part:
Exemplary conjugates as described herein were tested in vitro for inhibition of COX-1 and COX-2, using an enzyme immunoassay (EIA), as follows.
Cyclooxygenase catalyzes the first step in the biosynthesis of arachidonic acid (AA) to PGH2. PGF2α, produced from PGH2 by reduction with stannous chloride, is measured by enzyme immunoassay (ACETM competitive EIA).
Stock solutions of test compounds were dissolved in a minimum volume of DMSO. Briefly, to a series of supplied reaction buffer solutions (960 μl, 0.1M Tris-HCl pH 8.0 containing 5 mM EDTA and 2 mM phenol) with either COX-1 or COX-2 (10 μl) enzyme in the presence of heme (10 μl) were added 10 μl of various concentrations of test drug solutions (0.01, 0.1, 1, 10, 50, and 100 μM in a final volume of 1 ml). These solutions were incubated for a period of 5 minutes at 37° C. after which 10 μL of AA (100 μM) solution were added and the COX reaction was stopped by the addition of 50 μl of 1M HCl after 2 minutes. PGF2α, produced from PGH2 by reduction with stannous chloride was measured by enzyme immunoassay.
This assay is based on the competition between PGs and a PG-acetylcholinesterase conjugate (PG tracer) for a limited amount of PG antiserum. The amount of PG tracer that is able to bind to the PG antiserum is inversely proportional to the concentration of PGs in the wells since the concentration of PG tracer is held constant while the concentration of PGs varies. The concentration of the test compound causing 50% inhibition (IC50, μM) was calculated from the concentration-inhibition response curve (duplicate determinations).

A further data set addresses T2, hERG channels (Homo sapiens, UniProt Q12809).
T2 construct: expressed in transfected cells; host or cells: Xenopus laevis oocytes injected with hERG cRNA (pSP64 vector, SP6 promoter)
Briefly: hERG channels expressed in Xenopus oocytes, two-electrode voltage clamp. The format is cell-based. Details: initial current / final current / remaining current / avarage (remaining current): unit not given here. The conditions noted are these: for final current: at −130 mV; for final current / remaining current / initial current: individual oocytes; for avarage (remaining current): 5 oocytes; for initial current: at −130 mV after pre-pulse to +40 mV. As for the experimental part: The sensitivity of hERG channels to two compounds, MWL001 also termed in the application as MW001 or MWL-001 and MWL002 also termed MW002 or MWL-002, was tested using the Xenopus oocyte expression system and the two-electrode voltage clamp technique. Activity of the compounds was tested at a concentration of 15 μM both from the external and from the internal sides of the membrane.
Clones: hERG gene (gi|26051269) was cloned within pSP64 expression vector (Promega) downstream to a SP6 RNA polymerase promoter. cRNA was prepared following digestion with EcoR I.
Electrophysiology: Xenopus laevis oocytes were isolated, defolliculated and maintained at 17° C. in ND-91 solution (in mM): 91 NaCl, 2 KCl, 1.8 CaCl2, 1 MgCl2, and 5 HEPES, pH 7.5, supplemented with 100 U/ml penicillin, 100 μg/ml streptomycin and 50 μg/ml gentamycin. Oocytes were injected with 20 or 40 nl, containing 7-14 ng of hERG cRNA. Whole-cell currents were measured 2-3 days after injection by the two-electrode voltage clamp technique (TEVC), using a GeneClamp 500B amplifier (Axon Instruments). Data were filtered at 2 kHz and sampled at 5 kHz with Clampex 9.0 software (Axon Instruments). The pipette was filled with 3M KCl and the bath solution contained (in mM): 4 KCl, 96 NaCl, 1 MgCl2, 0.3 CaCl2, 5 HEPES, pH 7.4. For external application of the compounds, stock solutions of either MWL001 or MWL002 were dissolved in the bath solution to a final concentration of 15 μM. During the experiments, bath solution exchange rate was about 2 ml/minutes. At this rate, more than 95% of the bath solution is replaced within 30 seconds. For internal blockade measurements, oocytes were injected with 46 nl of diluted (0.274 mM) compound solutions to achieve a final concentration within the oocyte of 15 μM.
Internal application: Compounds were injected into the oocyte to achieve a final concentration of 15 μM. Injection was made during current measurements and results were collected before and for 5 minutes after the injection. Current levels were determined in 4 seconds intervals at −130 mV, following a pre-pulse to +40 mV (see, Table 4 and FIG. 3).
External application: MWL compounds were applied at 15 μM concentration in the bath solution and current levels were determined in 4 seconds intervals at −130 mV, following a pre-pulse to +40 mV, for 15 minutes (see, Table 4). In addition, measurements were made to determine channel behavior throughout the entire physiological voltage range.
Table 4 presents the data obtained for the effect of MWL compounds on expressed hERG channels in individual oocytes which were either incubated (external) or injected (internal) with MWL compounds. Currents were monitored for 15 or 5 minutes, respectively.
(In general: hERG is a cardiac potassium channel; its block is linked to QT prolongation.)

[1] abbreviates: external application 15 μM in bath, monitored 15 minutes.
Setting [2] is: external application 15 μM, 15 minutes.
Where [3] appears, read: external application, before exposure.
The mark [4] stands for this setting: internal application (injected) 15 μM, 5 minutes.
Where [5] appears, read: internal application (injected) 15 μM, monitored 5 minutes.
Where [6] appears, read: internal application, before injection.

T2 sequence (Q12809 whole entry): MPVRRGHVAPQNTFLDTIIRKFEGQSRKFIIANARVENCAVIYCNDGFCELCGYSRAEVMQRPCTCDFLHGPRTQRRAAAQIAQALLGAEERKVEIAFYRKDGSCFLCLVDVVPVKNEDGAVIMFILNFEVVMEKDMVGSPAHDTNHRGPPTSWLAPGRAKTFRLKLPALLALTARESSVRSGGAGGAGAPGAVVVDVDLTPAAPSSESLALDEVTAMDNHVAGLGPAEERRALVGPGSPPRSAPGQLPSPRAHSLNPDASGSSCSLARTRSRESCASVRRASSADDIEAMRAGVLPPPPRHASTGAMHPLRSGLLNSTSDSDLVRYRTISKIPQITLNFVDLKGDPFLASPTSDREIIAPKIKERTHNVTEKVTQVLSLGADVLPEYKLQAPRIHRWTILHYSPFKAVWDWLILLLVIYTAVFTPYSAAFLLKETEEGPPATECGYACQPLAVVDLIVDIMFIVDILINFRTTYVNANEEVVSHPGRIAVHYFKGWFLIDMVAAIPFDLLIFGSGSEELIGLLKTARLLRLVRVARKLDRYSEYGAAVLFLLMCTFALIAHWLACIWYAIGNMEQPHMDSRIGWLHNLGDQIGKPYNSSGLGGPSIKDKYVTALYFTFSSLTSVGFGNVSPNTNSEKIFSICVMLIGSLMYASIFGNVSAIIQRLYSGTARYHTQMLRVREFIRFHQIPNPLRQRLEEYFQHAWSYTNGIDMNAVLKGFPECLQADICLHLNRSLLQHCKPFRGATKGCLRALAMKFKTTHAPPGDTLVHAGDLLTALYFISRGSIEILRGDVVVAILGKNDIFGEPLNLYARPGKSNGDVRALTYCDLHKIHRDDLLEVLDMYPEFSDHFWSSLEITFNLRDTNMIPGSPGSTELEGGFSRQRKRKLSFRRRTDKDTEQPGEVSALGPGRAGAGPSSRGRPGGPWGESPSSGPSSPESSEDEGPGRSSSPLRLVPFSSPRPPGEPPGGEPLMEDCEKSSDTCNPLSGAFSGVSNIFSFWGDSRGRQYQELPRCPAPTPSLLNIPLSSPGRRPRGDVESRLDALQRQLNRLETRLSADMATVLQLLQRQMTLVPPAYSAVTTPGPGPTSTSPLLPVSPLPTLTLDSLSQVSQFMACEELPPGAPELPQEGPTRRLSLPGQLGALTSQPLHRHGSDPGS

`CC/C=C\C/C=C\C/C=C\C/C=C\C/C=C\C/C=C\CCC(=O)NCCS(=O)(=O)O` [MWL002, N-docosa-4,7,10,13,16,19-hexaenoyl-taurine]: the “Ratio (COX ½)” value on COX-2 was found to be 27.86. Besides, the “effect on hERG channel currents” value at hERG channels (15 μM, internal and external exposure) is recorded as “no sensitivity”. For the same molecule, the final current was −7.1 and −5.0 and −7.2 and −18.0 and −9.0 at hERG channels (setting [1]); −13.7 and −6.5 and −11.5 and −7.2 and −8.0 on hERG channels (setting [5]). Also, the “avarage (remaining current)” value at hERG channels (setting [2]) was 108.2; on hERG channels (setting [4]) it was 106.9. The remaining current at hERG channels (setting [2]) was 91.6 and 109.9 and 120.0 and 102.9 and 116.9; on hERG channels (setting [4]), 109.6 and 103.2 and 101.8 and 107.5 and 112.7. The initial current at hERG channels (setting [3]) is −7.8 and −4.6 and −6.0 and −17.5 and −7.7; at hERG channels (setting [6]), −12.5 and −6.3 and −11.3 and −6.7 and −7.1.

In the case of `CCC=CCC=CCC=CCC=CCC=CCC=CCCC(=O)N1CC(O)CC1C(=O)O` (stereo not shown) [MWL001], the “Ratio (COX ½)” value on COX-2 was found to be 464.11. For the same molecule, the final current on hERG channels (setting [1]) was −12.8 and −15.5 and −15.8 and −10.8 and −26.0; on hERG channels (setting [5]) it was −6.5 and −11.1 and −15.5 and −9.5 and −18.5. The “avarage (remaining current)” value at hERG channels (setting [2]) came to 95.7; on hERG channels (setting [4]), 101.6. Besides, the remaining current is 100.8 and 91.2 and 98.1 and 100.0 and 88.6 at hERG channels (setting [2]); 95.6 and 101.8 and 112.3 and 100.0 and 98.4 on hERG channels (setting [4]). Moreover, the initial current on hERG channels (setting [3]) is −12.7 and −17.0 and −16.1 and −10.8 and −29.3; on hERG channels (setting [6]) it was −6.8 and −10.9 and −13.8 and −9.5 and −18.8.
